Reference: patent US20220289794A1, “SYNTHETIC ANTIMICROBIAL PEPTIDES” (priority 2019, published 2022)
≈ marks a conversion by molar mass, not a printed value. Where two headings read alike, the source gives them in different places.

Tests used:
[1] = system: Pseudomonas aeruginosa (PSA, ATCC 27883); assay: Synergy checkerboard assay (FIC index); type: cell-based; settings: Pseudomonas aeruginosa (ATCC 27883), antibiotic alone
[2] = system: Escherichia coli (E. Coli, ATCC 25922); settings: Escherichia coli (ATCC 25922); antibiotic alone
[3] = system: Pseudomonas aeruginosa (ATCC 27883); assay: microbe, parasite or virus in culture; settings: ATCC27883, read-out: PSA (ATCC 27883 MIC)
[4] = system: Escherichia coli (ATCC 25922); assay: microbe, parasite or virus in culture; settings: ATCC25922, read-out: E. coli (ATCC 25922) MIC
[5] = system: Methicillin-resistant Staphylococcus aureus MRSA (ATCC BAA-1556); assay: microbe, parasite or virus in culture; settings: ATCCBAA1556|MRSA, 24 h
[6] = system: Pseudomonas aeruginosa (PSA, ATCC 27883); assay: microbe, parasite or virus in culture; settings: ATCC27883, 24 h
[7] = system: Escherichia coli (E. Coli, ATCC 25922); assay: microbe, parasite or virus in culture; settings: ATCC25922, 24 h
[8] = system: Enterococcus faecium ATCC 27270; assay: microbe, parasite or virus in culture; settings: ATCC27270
[9] = system: Enterococcus faecium ATCC 700221; assay: microbe, parasite or virus in culture; settings: ATCC700221
[10] = system: Staphylococcus aureus ATCC 29213; assay: microbe, parasite or virus in culture; settings: ATCC29213
[11] = system: Enterococcus faecalis ATCC 29212; assay: microbe, parasite or virus in culture; settings: ATCC29212
[12] = system: Enterococcus faecalis ATCC 51575; assay: microbe, parasite or virus in culture; settings: ATCC51575
[13] = system: Streptococcus pneumoniae ATCC 49619; assay: microbe, parasite or virus in culture; settings: ATCC49619
[14] = system: Streptococcus pneumoniae ATCC 51938; assay: microbe, parasite or virus in culture; settings: ATCC51938
MRSA = assay: microbe, parasite or virus in culture; settings: Staphylococcus aureus
KPC = assay: microbe, parasite or virus in culture; settings: Klebsiella pneumoniae, ATCCBAA1705, read-out: MIC Klebsiella pneumoniae (ATCC BAA-1705)
PSA = assay: microbe, parasite or virus in culture; settings: Pseudomonas aeruginosa, ATCC27883, read-out: MIC Pseudomonas aeruginosa (ATCC 27883)
E. coli = assay: microbe, parasite or virus in culture; settings: Escherichia coli, ATCC25922, read-out: MIC Escherichia coli (ATCC 25922)
[15] = system: Bacillus subtilis (ATCC-6633); assay: microbe, parasite or virus in culture; settings: ATCC6633
[16] = system: Bacillus cereus (ATCC-13061); assay: microbe, parasite or virus in culture; settings: ATCC13061

SMILES: C[C@@H](O)[C@H]1C(=O)N2C(C(=O)O)=C(S[C@@H]3CN[C@H](C(=O)N(C)C)C3)[C@H](C)[C@H]12 [Meropenem]
- MIC of antibiotic [1]: 1 µg/mL
- MIC of antibiotic ([1]; Table 26): 1 µg/mL
- antibiotic MIC ([1]; Table 27): 1 µg/mL
- MIC of antibiotic [2]: 1 µg/mL
- MIC [3]: 1 µg/mL (≈ 2.61 µM)
- MIC [4]: 1 µg/mL (≈ 2.61 µM)
- MIC ([5]; read-out: MRSA (ATCC BAA-1556) MIC, Table 29, [R6W4] (IFX-318), antibiotics alone and PHY-MIX (1:1 w/w)): 2 µg/mL (≈ 5.22 µM)
- MIC ([5]; read-out: MRSA (ATCC BAA-1556) MIC, Table 30, [R5W4K] (IFX-315), antibiotics alone and PHY-MIX (1:1 w/w)): 2 µg/mL (≈ 5.22 µM)
- MIC ([5]; read-out: MRSA (ATCC BAA-1556) MIC, Table 31, [R5W4] (IFX-301), antibiotics alone and PHY-MIX (1:1 w/w)): 2 µg/mL (≈ 5.22 µM)
- MIC ([5]; read-out: MRSA (ATCC BAA-1556) MIC, Table 32, meropenem, IFX-315, their conjugate and Phy-Mix 1:1): 2 µg/mL (≈ 5.22 µM)
- MIC ([6]; read-out: Pseudomonas aeruginosa (ATCC 27883) MIC, Table 28, IFX-031, antibiotics alone and PHY-MIX (1:1 w/w)): 1 µg/mL (≈ 2.61 µM)
- MIC ([6]; read-out: Pseudomonas aeruginosa (ATCC 27883) MIC, Table 29, [R6W4] (IFX-318), antibiotics alone and PHY-MIX (1:1 w/w)): 1 µg/mL (≈ 2.61 µM)
- MIC ([6]; read-out: Pseudomonas aeruginosa (ATCC 27883) MIC, Table 30, [R5W4K] (IFX-315), antibiotics alone and PHY-MIX (1:1 w/w)): 1 µg/mL (≈ 2.61 µM)
- MIC ([6]; read-out: Pseudomonas aeruginosa (ATCC 27883) MIC, Table 31, [R5W4] (IFX-301), antibiotics alone and PHY-MIX (1:1 w/w)): 1 µg/mL (≈ 2.61 µM)
- MIC ([6]; read-out: Pseudomonas aeruginosa (ATCC 27883) MIC, Table 32, meropenem, IFX-315, their conjugate and Phy-Mix 1:1): 1 µg/mL (≈ 2.61 µM)
- MIC ([7]; read-out: Escherichia coli (ATCC 25922) MIC, Table 29, [R6W4] (IFX-318), antibiotics alone and PHY-MIX (1:1 w/w)): 1 µg/mL (≈ 2.61 µM)
- MIC ([7]; read-out: Escherichia coli (ATCC 25922) MIC, Table 30, [R5W4K] (IFX-315), antibiotics alone and PHY-MIX (1:1 w/w)): 1 µg/mL (≈ 2.61 µM)
- MIC ([7]; read-out: Escherichia coli (ATCC 25922) MIC, Table 31, [R5W4] (IFX-301), antibiotics alone and PHY-MIX (1:1 w/w)): 1 µg/mL (≈ 2.61 µM)
- MIC ([7]; read-out: Escherichia coli (ATCC 25922) MIC, Table 32, meropenem, IFX-315, their conjugate and Phy-Mix 1:1): 1 µg/mL (≈ 2.61 µM)
- MIC [8]: 0.5 µg/mL (≈ 1.3 µM)
- MIC [9]: 64 µg/mL (≈ 167 µM)
- MIC [10]: 0.25 µg/mL (≈ 0.652 µM)
- MIC [11]: 2 µg/mL (≈ 5.22 µM)
- MIC [12]: 8 µg/mL (≈ 20.9 µM)
- MIC [13]: 0.25 µg/mL (≈ 0.652 µM)
- MIC [14]: 0.25 µg/mL (≈ 0.652 µM)
- MIC (MRSA; ATCCBAA1556 / MRSA, read-out: MIC MRSA (ATCC BAA-1556)): 4 µg/mL (≈ 10.4 µM)
- MIC (MRSA; MRSA): 2 µg/mL (≈ 5.22 µM)
- MIC (KPC): 8 µg/mL (≈ 20.9 µM)
- MIC (PSA): 0.5 µg/mL (≈ 1.3 µM)
- MIC (E. coli): 0.125 µg/mL (≈ 0.326 µM)
- MIC [15]: 0.25 µg/mL (≈ 0.652 µM)
- MIC [16]: 4 µg/mL (≈ 10.4 µM)
